Results on 34 molecules are retold here after patent publication US20260209214A1, “LSD1 MODULATORS” (RECURSION PHARMACEUTICALS, INC., priority 2022, published 2026).

The assay has as its target Recombinant human LSD1 (Homo sapiens, UniProt O60341). Put plainly: LSD1 inhibition assay (HTRF LSD1 Histone H3K4 mono-demethylation assay, me1->me0). Type of assay: biochemical. As to conditions: 20 nM recombinant human LSD1, 95 nM H3K4(me1) biotinylated peptide, 15 min preincubation, 60 min at 25° C., read-out: LSD1 inhibition IC50 (nM range). As to the method:
LSD1 biochemical activity was measured using the HTRF® LSD1 Histone H3K4 mono-demethylation assay (me1->me0). Briefly, the enzymatic buffer was prepared by addition of 50 mM Tris-HCl (Sigma cat #T2663-IL), 50 mM NaCl (ThermoFisher cat #AM9759) and 0.01% Tween 20 (ThermoFisher cat #J20605.AP) in distilled water (final pH 8.5). This buffer was supplemented with 10 μM FAD (Fisher Scientific cat #11411838) and 1 mM DTT (Sigma cat #D0632). For the assay, H3K4(me1) biotinylated peptide substrate (Anaspec, cat #64355) was added to provide a final assay concentration of 95 nM. The streptavidin-XL665 (Cisbio cat #610SAXLA) and H3K4 me0-Eu(K) antibody-cryptate (Cisbio, cat #61 KAOKAD) detection reagents were mixed according to the manufacturer's instructions. Test compounds were diluted in DMSO in a series of 10 semi-log step doses; 10 nL of each compound dose were dispensed in 384 well plates. Recombinant human LSD1 was diluted into enzymatic buffer to provide a final assay concentration of 20 nM and added to the tested compounds for 15 minutes. The reaction was started by addition of the substrate and incubated at 25° C. for 60 minutes. The detection reagents were added, and the plate was incubated in the dark for 90 minutes. Fluorescence was measured on an Envision 2103 plate reader with optical setup for […] in the HTRF mode. The ratio of acceptor and donor emission signals was calculated for each well. Percent inhibition values were calculated from the HTRF ratios at different doses and fitted to a 4-parameter logistic curve to determine IC50 values. […]

Structures can show the parent of a compound that is named as a salt.

As a reminder, the IC50 is the concentration that inhibits the measured activity by half. For `Cc1cc(CN2[C@@H]3CC[C@H]2[C@@H](N)C3)c(C2CC2)c(-c2ccc(C#N)c(F)c2)c1` (racemic) [Example 304, 3'-{[(1S,2S,4R)-2-amino-7-azabicyclo[2.2.1]heptan-7-yl]methyl}-2'-cyclopropyl-3-fluoro-5'-methyl-[1,1'-biphenyl]-4-carbonitrile], the IC50 lay in the range of 10 to 25 nM.
Take `N#Cc1ccc(-c2cc(CN3[C@@H]4CC[C@H]3[C@@H](N)C4)ccc2Cl)cc1F` (racemic) [Example 305, 5'-{[(1S,2S,4R)-2-amino-7-azabicyclo[2.2.1]heptan-7-yl]methyl}-2'-chloro-3-fluoro-[1,1'-biphenyl]-4-carbonitrile]: the concentration for half-maximal inhibition (IC50) lay in the range of 25 to 100 nM.
Regarding `Cc1c(CN2[C@@H]3CC[C@H]2[C@@H](N)C3)cccc1-c1ccc(C#N)c(F)c1` (racemic) [Example 306, 3'-{[(1S,2S,4R)-2-amino-7-azabicyclo[2.2.1]heptan-7-yl]methyl}-3-fluoro-2'-methyl-[1,1'-biphenyl]-4-carbonitrile], the IC50 lay in the range of 100 to 1000 nM.
For the molecule `CC1(c2c(CN3[C@@H]4CC[C@H]3[C@@H](N)C4)cccc2-c2ccc(C#N)c(F)c2)CC1` (racemic) [Example 307, 3'-{[(1S,2S,4R)-2-amino-7-azabicyclo[2.2.1]heptan-7-yl]methyl}-3-fluoro-2'-(1-methylcyclopropyl)-[1,1'-biphenyl]-4-carbonitrile], the IC50 is 100 to 1000 nM.
`N#Cc1ccc(-c2cc(CN3[C@@H]4CC[C@H]3[C@@H](N)C4)ccc2C2CC2)cc1F` (racemic) [Example 309, 5'-{[(1S,2S,4R)-2-amino-7-azabicyclo[2.2.1]heptan-7-yl]methyl}-2'-cyclopropyl-3-fluoro-[1,1'-biphenyl]-4-carbonitrile]: the IC50 is 10 to 25 nM.
On to `N#Cc1ccc(-c2cc(CN3[C@@H]4CC[C@H]3[C@@H](N)C4)ccc2OC(F)F)cc1F` (racemic) [Example 310, 5'-{[(1S,2S,4R)-2-amino-7-azabicyclo[2.2.1]heptan-7-yl]methyl}-2'-(difluoromethoxy)-3-fluoro-[1,1'-biphenyl]-4-carbonitrile], for which the IC50 was in the range of 10 to 25 nM.
With `N#Cc1ccc(-c2cc(CN3[C@@H]4CC[C@H]3[C@@H](N)C4)ccc2OCC2CC2)cc1F` (racemic) [Example 311, 5'-{[(1S,2S,4R)-2-amino-7-azabicyclo[2.2.1]heptan-7-yl]methyl}-2'-(cyclopropylmethoxy)-3-fluoro-[1,1'-biphenyl]-4-carbonitrile], the IC50 fell in the range of 10 to 25 nM.
For `N#Cc1ccc(-c2cc(CN3[C@@H]4CC[C@H]3[C@@H](N)C4)ccc2OC2CCC2)cc1F` (racemic) [Example 312, 5'-{[(1S,2S,4R)-2-amino-7-azabicyclo[2.2.1]heptan-7-yl]methyl}-2'-cyclobutoxy-3-fluoro-[1,1'-biphenyl]-4-carbonitrile], the IC50 fell in the range of 10 to 25 nM.
Turning to `N#Cc1ccc(-c2cc(CN3[C@@H]4CC[C@H]3[C@@H](N)C4)ccc2COC(F)F)cc1F` (racemic) [Example 313, 5'-{[(1S,2S,4R)-2-amino-7-azabicyclo[2.2.1]heptan-7-yl]methyl}-2'-[(difluoromethoxy)methyl]-3-fluoro-[1,1'-biphenyl]-4-carbonitrile], the IC50 was in the range of 10 to 25 nM.
In the case of `N#Cc1ccc(-c2cc(CN3[C@@H]4CC[C@H]3[C@@H](N)C4)ccc2-c2ccns2)cc1F` (racemic) [Example 314, 5'-{[(1S,2S,4R)-2-amino-7-azabicyclo[2.2.1]heptan-7-yl]methyl}-3-fluoro-2'-(1,2-thiazol-5-yl)-[1,1'-biphenyl]-4-carbonitrile], the IC50 fell in the range of 10 to 25 nM.
For `N#Cc1ccc(-c2cc(CN3[C@@H]4CC[C@H]3[C@@H](N)C4)ccc2OCCC(F)F)cc1F` (racemic) [Example 315, 5'-{[(1S,2S,4R)-2-amino-7-azabicyclo[2.2.1]heptan-7-yl]methyl}-2'-(3,3-difluoropropoxy)-3-fluoro-[1,1'-biphenyl]-4-carbonitrile], the IC50 was less than 10 nM.
For `N#Cc1ccc(-c2cc(CN3[C@@H]4CC[C@H]3[C@@H](N)C4)ccc2OCC(F)(F)F)cc1F` (racemic) [Example 316, 5'-{[(1S,2S,4R)-2-amino-7-azabicyclo[2.2.1]heptan-7-yl]methyl}-3-fluoro-2'-(2,2,2-trifluoroethoxy)-[1,1'-biphenyl]-4-carbonitrile], the IC50 was 10 to 25 nM.
The figure for `COc1cnc(-c2ccc(CN3[C@@H]4CC[C@H]3[C@@H](N)C4)cc2-c2ccc(C#N)c(F)c2)cn1` (racemic) [Example 317, 5'-{[(1S,2S,4R)-2-amino-7-azabicyclo[2.2.1]heptan-7-yl]methyl}-3-fluoro-2'-(5-methoxypyrazin-2-yl)-[1,1'-biphenyl]-4-carbonitrile] is 10 to 25 nM; for `N#Cc1ccc(-c2cccc(CN3[C@@H]4CC[C@H]3[C@H](N)C4)c2C2CC2)cc1F` (racemic) [Example 319, 3'-{[(1S,2R,4R)-2-amino-7-azabicyclo[2.2.1]heptan-7-yl]methyl}-2'-cyclopropyl-3-fluoro-[1,1'-biphenyl]-4-carbonitrile] it is 25 to 100 nM.
The figure for `COCc1c(CN2[C@@H]3CC[C@H]2[C@@H](N)C3)cccc1-c1ccc(C#N)c(F)c1` (racemic) [Example 320, 3'-{[(1S,2S,4R)-2-amino-7-azabicyclo[2.2.1]heptan-7-yl]methyl}-3-fluoro-2'-(methoxymethyl)-[1,1'-biphenyl]-4-carbonitrile] is 100 to 1000 nM.
Consider `C[C@@H]1CCN(Cc2cccc(-c3ccc(C#N)c(F)c3)c2Cl)C[C@H]1N` (racemic) [Example 331, 3'-{[(3S,4R)-3-amino-4-methylpiperidin-1-yl]methyl}-2'-chloro-3-fluoro-[1,1'-biphenyl]-4-carbonitrile], for which the IC50 is greater than 1000 nM.
`N#Cc1ccc(-c2cccc(C[C@H]3CNCCO3)c2-c2ccns2)cc1` (single isomer, unassigned) [Example 5, hydrochloride]: the IC50 is 10 to 25 nM.
As to `N#Cc1ccc(-c2cc(F)cc(C[C@H]3CNCCO3)c2-c2ccns2)cc1F` (single isomer, unassigned) [Example 6], the IC50 was 10 to 25 nM.
`N#Cc1ccc(-c2cccc(C[C@@H]3CNCCO3)c2-c2ccno2)cc1` (single isomer, unassigned) [Example 7]: the IC50 was 10 to 25 nM.
For the molecule `N#Cc1ccc(-c2cccc(C[C@@H]3CNCCO3)c2C2=CCOC2)cc1F` (single isomer, unassigned) [Example 8], the IC50 was less than 10 nM.
Turning to `N#Cc1ccc(-c2cccc(C[C@H]3CNCCO3)c2-c2ccno2)cc1` (single isomer, unassigned) [Example 9], the IC50 was in the range of 10 to 25 nM.
In the case of `N#Cc1ccc(-c2cccc(C[C@@H]3CNCCO3)c2-c2ccns2)cc1` (single isomer, unassigned) [Example 11], the IC50 lay in the range of 10 to 25 nM.
On to `N#Cc1ccc(-c2cccc(C[C@@H]3CNCCO3)c2-c2ccno2)cc1F` (single isomer, unassigned) [Example 13], for which the IC50 lay within 10 to 25 nM.
Turning to `N#Cc1ccc(-c2cc(F)cc(C[C@@H]3CNCCO3)c2-c2ccns2)cc1F` (single isomer, unassigned) [Example 14], the IC50 fell in the range of 10 to 25 nM.
Turning to `N#Cc1ccc(-c2cccc(C[C@H]3CNCCO3)c2-c2ccno2)cc1F` (single isomer, unassigned) [Example 17], the IC50 lay within 10 to 25 nM.
For `N#Cc1ccc(-c2cccc(C[C@H]3CNCCO3)c2C2=CCOC2)cc1F` (single isomer, unassigned) [Example 22], the IC50 lay within 10 to 25 nM.
As to `N#Cc1ccc(-c2cccc(C[C@@H]3CNCCO3)c2-c2cncs2)cc1F` (single isomer, unassigned) [Example 23], the IC50 was 10 to 25 nM.
As for `N#Cc1ccc(-c2cccc(C[C@@H]3CNCCO3)c2-c2ocnc2F)cc1F` (single isomer, unassigned) [Example 26], the IC50 is less than 10 nM.
As to `N#Cc1ccc(-c2cccc(C[C@H]3CNCCO3)c2-c2cncs2)cc1F` (single isomer, unassigned) [Example 30], the half-maximal inhibitory concentration (IC50) lay in the range of 10 to 25 nM.
For `N#Cc1ccc(-c2cccc(C[C@H]3CNCCO3)c2-c2scnc2Cl)cc1F` (single isomer, unassigned) [Example 31], the IC50 lay in the range of 25 to 100 nM.
In the case of `N#Cc1ccc(-c2cccc(C[C@@H]3CNCCO3)c2-c2scnc2Cl)cc1F` (single isomer, unassigned) [Example 37], the IC50 lay in the range of 10 to 25 nM.
Consider `N#Cc1ccc(-c2cc(C[C@@H]3CNCCO3)ccc2N2CCC2)cc1F` (single isomer, unassigned) [Example 41], for which the IC50 lay in the range of 100 to 1000 nM.
In the case of `N#Cc1ccc(-c2cc(C[C@H]3CNCCO3)ccc2N2CCC2)cc1F` (single isomer, unassigned) [Example 54], the IC50 is 100 to 1000 nM.
The figure for `Cc1cc(NC[C@@H]2CNCCO2)c(Cl)c(-c2ccc(C#N)c(F)c2)c1` (single isomer, unassigned) [Example 87] is greater than 1000 nM.
